According to US20200031866A1, “PEPTIDE INHIBITORS OF SODIUM CHANNELS” (SPYRYX BIOSCIENCES, INC., priority 2016, published 2020):
Entries after “also recorded” stand apart in the source; their conditions may differ. Square brackets hold non-standard residues; d marks the D form. Ends that are not written are not given here. Peptide text beside a SMILES is read from it. Nle = CCCC[C@H](N)C(=O)O

Assays:
alpha-ENaC = target: T1, alpha-ENaC (Homo sapiens, UniProt P37088+P51168+P51170); test: Internalization of alpha-ENaC in HEK293T cells, GFP-tagged alpha-ENaC co-expressed with beta and gamma ENaC; format: cell-based; settings: beta-ENaC co-expressed, FIGS. 5A-5U
T1 construct: expressed in transfected cells; host or cells: HEK293T
T1 sequence (P37088 1-669): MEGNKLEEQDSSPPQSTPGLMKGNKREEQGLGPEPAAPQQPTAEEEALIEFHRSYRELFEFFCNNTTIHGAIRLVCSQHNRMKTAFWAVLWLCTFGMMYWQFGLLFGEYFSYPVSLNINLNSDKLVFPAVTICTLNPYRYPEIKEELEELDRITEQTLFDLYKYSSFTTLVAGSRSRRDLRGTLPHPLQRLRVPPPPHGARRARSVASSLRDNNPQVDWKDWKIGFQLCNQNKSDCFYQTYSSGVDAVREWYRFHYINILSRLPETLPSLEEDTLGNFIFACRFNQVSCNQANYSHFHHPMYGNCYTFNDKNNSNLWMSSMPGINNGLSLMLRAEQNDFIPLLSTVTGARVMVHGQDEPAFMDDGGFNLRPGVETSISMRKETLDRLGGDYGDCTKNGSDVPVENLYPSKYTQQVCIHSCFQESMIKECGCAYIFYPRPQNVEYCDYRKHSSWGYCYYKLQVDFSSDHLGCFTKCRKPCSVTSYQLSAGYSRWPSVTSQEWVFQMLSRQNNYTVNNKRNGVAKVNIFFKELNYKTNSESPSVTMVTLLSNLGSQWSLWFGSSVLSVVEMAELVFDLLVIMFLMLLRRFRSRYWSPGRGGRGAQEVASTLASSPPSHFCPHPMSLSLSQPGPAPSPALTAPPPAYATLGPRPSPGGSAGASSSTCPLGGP
T1 sequence (P51168 1-640): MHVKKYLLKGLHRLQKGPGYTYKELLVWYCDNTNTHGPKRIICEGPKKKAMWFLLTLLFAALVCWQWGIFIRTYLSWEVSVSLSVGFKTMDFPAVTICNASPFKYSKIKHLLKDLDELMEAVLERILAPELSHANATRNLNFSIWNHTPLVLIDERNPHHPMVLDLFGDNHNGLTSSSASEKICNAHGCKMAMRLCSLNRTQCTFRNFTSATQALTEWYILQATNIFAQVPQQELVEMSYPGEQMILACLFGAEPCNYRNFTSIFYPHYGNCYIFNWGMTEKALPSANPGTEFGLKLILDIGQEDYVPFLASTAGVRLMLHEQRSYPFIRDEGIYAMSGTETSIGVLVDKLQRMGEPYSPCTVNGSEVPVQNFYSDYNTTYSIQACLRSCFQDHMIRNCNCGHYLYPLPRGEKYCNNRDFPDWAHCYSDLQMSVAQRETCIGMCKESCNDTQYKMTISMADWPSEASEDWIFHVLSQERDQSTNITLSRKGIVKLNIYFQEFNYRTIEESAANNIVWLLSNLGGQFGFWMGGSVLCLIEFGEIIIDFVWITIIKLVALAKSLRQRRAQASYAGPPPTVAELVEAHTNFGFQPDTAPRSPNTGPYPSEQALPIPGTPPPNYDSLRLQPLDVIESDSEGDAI
T1 sequence (P51170 1-649): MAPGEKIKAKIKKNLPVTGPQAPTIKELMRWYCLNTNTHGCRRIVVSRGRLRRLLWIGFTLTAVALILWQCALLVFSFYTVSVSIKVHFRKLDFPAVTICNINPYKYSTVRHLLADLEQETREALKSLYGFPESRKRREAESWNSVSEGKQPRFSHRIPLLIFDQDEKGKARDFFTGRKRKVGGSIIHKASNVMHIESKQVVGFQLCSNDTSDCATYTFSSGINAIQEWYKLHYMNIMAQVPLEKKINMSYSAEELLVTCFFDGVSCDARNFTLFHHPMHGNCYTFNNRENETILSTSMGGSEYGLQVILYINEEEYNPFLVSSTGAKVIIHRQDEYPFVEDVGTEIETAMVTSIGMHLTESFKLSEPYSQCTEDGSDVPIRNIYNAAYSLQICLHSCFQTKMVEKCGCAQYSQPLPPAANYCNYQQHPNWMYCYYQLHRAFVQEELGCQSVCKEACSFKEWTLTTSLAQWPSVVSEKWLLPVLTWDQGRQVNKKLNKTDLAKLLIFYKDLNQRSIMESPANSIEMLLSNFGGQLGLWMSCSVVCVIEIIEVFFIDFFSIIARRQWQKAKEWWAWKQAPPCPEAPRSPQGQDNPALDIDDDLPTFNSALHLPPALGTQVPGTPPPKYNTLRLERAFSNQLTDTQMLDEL
Description: HEK293T cells were transfected with gfp-αENaC where gfp was fused at the N-terminus of ENaC and unlabeled βENaC and γENaC using lipofectamine in 384 well plates as per the manufacturer's instructions and as published previously (see, e.g., Hobbs et al. Am J Physiol Lung Cell Mol Physiol. 2013 December; 305(12):L990-L1001. doi: 10.1152/ajplung.00103.2013. Epub 2013 October; Garland et al. Proc Natl Acad Sci USA. 2013 Oct. 1; 110(40):15973-8. doi: 10.1073/pnas.1311999110. Epub 2013 Sep. 16.; Tan et al. J Physiol. 2014 Dec. 1; 592(Pt 23):5251-68). Twenty-four hours later, peptide or vehicle control were added at t=0 and fluorescence was read using a Tecan M1000 plate reader 3 h later. Fluorescence was read at 488 nm (excitation)/510 nm (emission).

ENaC [1] = target: T2, ENaC (Homo sapiens, UniProt P37088+P51168+P51170); test: Airway surface liquid (ASL) height in human bronchial epithelial cultures by XZ-confocal microscopy; format: cell-based; settings: FIGS. 3A, 3B; for potency compared to S18 (dose response): 4
T2 construct: Peptides were added mucosally to HBECs at 30 μM and ASL height measured 3 h later by XZ-confocal microscopy; endogenous in cells; host or cells: primary human bronchial epithelial cultures (HBECs) at air-liquid interface
T2 sequence (P37088 1-669): T1 sequence (P37088 1-669)
T2 sequence (P51168 1-640): T1 sequence (P51168 1-640)
T2 sequence (P51170 1-649): T1 sequence (P51170 1-649)

βENaC-Tg mice = format: in vivo; settings: βENaC-Tg C57BL:C3H mice, fourteen-day treatment; FIGS. 7C, 7D, 7F
Description: Like CF patients, βENaC-Tg mice are disease free at birth, but soon develop obstructive lung disease (Zhou, Z., et al. Am J Respir Crit Care Med 178, 1245-1256 (2008)). C57BL:FVB and C57BL:C3H mixed strains have 90% and 50% mortality, respectively, and the reproducibility of the disease on these backgrounds is sufficiently high that reliable data are produced with n of about 8-10 animals/group. Furthermore, the βENaC-Tg mouse responds to therapeutic interventions in a fashion similar to CF/COPD in humans, and the development of lung disease can be prevented following inhibition of lung disease at birth (Livraghi, A., et al. J Immunol 182, 4357-4367 (2009)). S18-derived peptides or vehicle were dosed one to three times a day by intranasal instillation (1 μl/g body weight) for 14 days in parallel cohorts of mice. Mice were weighed daily and, if a diuretic effect was found, the volume excreted was replaced by sub-cutaneous injections of sterile saline. At the end of the treatment, mice were sacrificed for phenotypic analysis.

ENaC [2] = target: T2, ENaC; test: Airway surface liquid (ASL) height in human bronchial epithelial cultures by XZ-confocal microscopy; format: cell-based; settings: peptides added mucosally to HBECs at 30 μM, ASL height measured 3 h later; FIGS. 2A-2B
Description: Cells were harvested by enzymatic digestion from human bronchial tissue as previously described under a protocol approved by the UNC School of Medicine IRB (Tarran et al., J. Gen. Physiol. 127:591 (2006)). Human excess donor lungs and excised recipient lungs were obtained at the time of lung transplantation from portions of main stem or […] bronchi and cells were harvested by enzymatic digestion. All preparations were maintained at an air-liquid interface in a modified bronchial epithelial medium and used 2-5 weeks after seeding on 12 mm T-Clear inserts (Corning Costar) coated with human placental type VI collagen (Sigma). Phosphate buffered saline (PBS) was used for washing human bronchial epithelial culture mucosal surfaces.
To label airway surface liquid, Ringer containing rhodamine-dextran (2 mg/ml; Invitrogen) was added to human bronchial epithelial culture mucosal surfaces. […] 10 points per culture were scanned and an average airway surface liquid height determined. […]
To confirm our alanine-scan data, we made a peptide of subsequence A (LPVPLDQT (SEQ ID NO:113); FIG. 1). […] Peptides were added mucosally to HBECs at 30 μM and ASL height measured 3 h later by XZ-confocal microscopy. […]

proteases = format: in vitro ADME

| Compound | efficacy compared to S18 (dose response) (ENaC [1]) | potency compared to S18 (dose response) (ENaC [1]) | other results |
| --- | --- | --- | --- |
| N=C(N)NC(=O)c1nc(Cl)c(N)nc1N [amiloride] | – | – | reduction of alpha-ENaC / functional receptor on the cell surface (alpha-ENaC): does not reduce the amount of functional receptor on the surface of cells |
| aaLPVPNleDQTaa [SEQ ID NO:6] | diminished | – | – |
| CCCC[C@H](NC(=O)[C@@H]1CCCN1C(=O)[C@H](CC(C)C)NC(=O)[C@@H](C)NC(=O)[C@@H](C)N)C(=O)N1CCC[C@H]1C(=O)N[C@@H](CC(C)C)C(=O)N[C@@H](CC(=O)O)C(=O)N[C@@H](CCC(N)=O)C(=O)N[C@H](C(=O)N[C@H](C)C(=O)N[C@H](C)C(N)=O)[C@@H](C)O [SEQ ID NO:5, aaLPNlePLDQTaa] (H-[dA][dA]LP[Nle]PLDQT[dA][dA]-NH2; N-terminus assumed) | – | log-fold increase in potency; also recorded: significant increase in potency; also recorded: increased potency | – |
| SEQ ID NO:127: NH3-LPIPLDQT-NH2 (H-LPIPLDQT-NH2) | – | – | percent survival (βENaC-Tg mice): increased percent survival |
| H-LPVPLDQT-NH2 [SEQ ID NO:113, LPVPLDQT] | – | – | activity on ASL height / inhibition of ENaC compared with S18 (ENaC [2]): retained similar activity to S18; also recorded: required for inhibition of ENaC and preservation of ASL height; susceptibility to proteolytic degradation (proteases): more susceptible to proteolytic degradation |
| aaLPVPLDQSaa ([dA][dA]LPVPLDQS[dA][dA]-NH2; N-terminus assumed; SMILES CC(C)C[C@H](NC(=O)[C@@H]1CCCN1C(=O)[C@@H](NC(=O)[C@@H]1CCCN1C(=O)[C@H](CC(C)C)NC(=O)[C@@H](C)NC(=O)[C@@H](C)N)C(C)C)C(=O)N[C@@H](CC(=O)O)C(=O)N[C@@H](CCC(N)=O)C(=O)N[C@@H](CO)C(=O)N[C@H](C)C(=O)N[C@H](C)C(N)=O) [SEQ ID NO:9] | – | diminished | – |
| aaLPVPLDQTaa ([dA][dA]LPVPLDQT[dA][dA]-NH2; N-terminus assumed; SMILES CC(C)C[C@H](NC(=O)[C@@H]1CCCN1C(=O)[C@@H](NC(=O)[C@@H]1CCCN1C(=O)[C@H](CC(C)C)NC(=O)[C@@H](C)NC(=O)[C@@H](C)N)C(C)C)C(=O)N[C@@H](CC(=O)O)C(=O)N[C@@H](CCC(N)=O)C(=O)N[C@H](C(=O)N[C@H](C)C(=O)N[C@H](C)C(N)=O)[C@@H](C)O) [SEQ ID NO:3, a = D-alanine] | identical dose responses; also recorded: equal | identical dose responses; also recorded: equal | – |
| DQTLPLNVNP (not fully specified) [SEQ ID NO:114, NH3-…-NH2, overlapping control peptide of S18] | – | – | activity on ASL height / inhibition of ENaC compared with S18 (ENaC [2]): inactive |
| aaLPVPLDQTLPLNVNPaa ([dA][dA]LPVPLDQTLPLNVNP[dA][dA]-NH2; N-terminus assumed; SMILES CC(C)C[C@H](NC(=O)[C@@H]1CCCN1C(=O)[C@H](CC(C)C)NC(=O)[C@@H](NC(=O)[C@H](CCC(N)=O)NC(=O)[C@H](CC(=O)O)NC(=O)[C@H](CC(C)C)NC(=O)[C@@H]1CCCN1C(=O)[C@@H](NC(=O)[C@@H]1CCCN1C(=O)[C@H](CC(C)C)NC(=O)[C@@H](C)NC(=O)[C@@H](C)N)C(C)C)[C@@H](C)O)C(=O)N[C@@H](CC(N)=O)C(=O)N[C@H](C(=O)N[C@@H](CC(N)=O)C(=O)N1CCC[C@H]1C(=O)N[C@H](C)C(=O)N[C@H](C)C(N)=O)C(C)C) [SEQ ID NO:2, a = D-alanine] | equal | equal | – |
